According to a melting point compilation (Tetko et al.; mined from patent text by program, amines drawn as free bases though some values may be those of a salt):

SMILES | melting point [°C]
CC(C)OC(=O)N1CCC(c2nc3cc(-c4ccc(C(N)=O)cc4F)ccc3o2)CC1 | 194 to 197
CC(C)CCSc1cc(C(=O)O)cc(S(=O)(=O)Cl)c1Oc1ccccc1 | 168 to 169
COc1cc(OC)nc(NC(=O)N=NS(=O)(=O)C2SCC(=O)N2C)n1 (stereo not given) | 200 to 201
CNc1ccc(C#N)cc1 | 85 to 87
CC(=O)c1ccc(C(=O)N2Cc3ccnn3Cc3ccccc32)cc1 | 201 to 210
Cn1cc(C(=O)NCc2ccc(Cl)cc2)c(=O)c2cc(CN3CCOCC3)cc(C#Cc3cccnc3)c21 | 195 to 197
COc1ccc(NC(=O)C2CCc3c(OCc4ccccc4)cccc32)c(OC)c1 (stereo not given) | 130
CC1CC2C3C=C(Cl)C4=CC(=O)CCC4(C)C3C(O)CC2(C)C1C(=O)CO (stereo not given) | 229
CCOC(=O)c1cc2ccc3cc4ccccc4cc3c2n1C | 165 to 166
CCCCCCCCCCCCCCCC(=O)OCCN(C)C | 46 to 48
CC(C)CS(=O)(=O)c1ccnc(OS(C)(=O)=O)c1 | 75.5 to 76.5
CNc1cc(Oc2cc(C(F)(F)F)nn2C)nc(Oc2cc(C(F)(F)F)nn2C)c1 | 118
COc1cc(C2CCN(C(=O)CN(C)C)CC2)ccc1Nc1ncc2ccc(-c3ccccc3N(C)S(C)(=O)=O)n2n1 | 99 to 110
NC(=O)c1ccc(F)c2c1CC(N(CCCc1c[nH]c3ccc(F)cc13)CC1CC1)CO2 (stereo not given) | 121
COC(=O)c1nsc(N)n1 | 202 to 205
O=[N+]([O-])c1ccc(-c2nc3ccc(F)cc3s2)cc1 | 201 to 202
O=C1c2ccccc2C(=O)N1CC(=O)N1c2ccccc2N(Cc2ccc(Cl)cc2)C(=O)[C@H]2CCC[C@H]21 (relative stereo) | 205 to 206
COc1ccc(CSC(=S)N2C(CO)Cc3c([nH]c4ccccc34)C2C)cc1 (stereo not given) | 152 to 153
CCOC(=O)C1(c2cccc(Cl)c2C)CCN(S(=O)(=O)c2ccc(C)cc2)CC1 | 134
COc1cc(Cl)nc(Oc2cccc(Oc3nc(OC)cc(OC)n3)c2C(=O)O)n1 | 150 to 152
CC1(C)OCC(COc2ccc(-c3ccc4cc(C(=O)O)ccc4c3)cc2C23CC4CC(CC(C4)C2)C3)O1 (stereo not given) | 287
Oc1cccnc1Cc1cccc(Br)c1 | 160 to 162
O=C(OCc1ccccc1)c1ccc(C#Cc2ccccc2)cc1OCc1ccccc1 | 98 to 100
CN1C(=O)C(C2=COc3ccccc3O2)=C(c2c[nH]c3ccc(F)cc23)C1=O | 229
COc1cccc(Nc2ccnc(Nc3cc(OC)c(OC)c(OCc4ccccc4)c3)n2)c1 | 83 to 84

SMILES | melting point [°C]
CC(Cc1c[nH]c2ccccc12)(NC(=O)OC1C2CC3CC(C2)CC1C3)C(=O)NC1(CC(=O)O)CCCCC1 (stereo not given) | 174
O=C(Nc1ccc(C(F)(F)F)cc1)NC1CCN(C(=O)c2cccnc2)CC1 | 213 to 217
C#CCNC(=O)N1CC(c2ccc(C(C)(C)C)cc2)C1 | 141
CCOC(=O)c1ccc(C(C(N)=O)C(CCc2ccccc2)c2ccccc2N2CCCCC2)cc1 (stereo not given) | 118 to 119
CCCn1c(=O)c2c(nc(C=Cc3ccc(C(=O)OC)cc3OC)n2C)n(CCC)c1=O | 198 to 200
CCc1nc(/C=C/c2cccc(Cl)c2Cl)no1 | 107 to 109
CCOC(=O)Cn1nc2ccc(NCCCN3CCC(OC(c4ccccc4)c4ccccc4)CC3)nn2c1=O | 137 to 139
CCOCCN(CC1=CCC(NC(C)=O)(Oc2ccccc2)C=C1)C(=O)C(Cl)Cl (stereo not given) | 114 to 116
Cc1cc(N2CC=C(C(=O)O)CC2)c2cccc(-c3ccc(Cl)cc3Cl)c2n1 | 218 to 220
CC(=O)Nc1ncc2ncn(COC(COC(C)C)COC(C)C)c2n1 | 85 to 86
COc1cc(-c2c(-c3ccc(F)cc3)nc3ccc(N4CCN(C)CC4)nn23)ccn1 | 189 to 194
CCCc1ccc2c(c1)C=Cc1sc(C)nc1C2c1cn(C)c(=O)[nH]c1=S (stereo not given) | 235
COc1ccc2c(CO)c(F)ccc2c1C(F)(F)F | 113 to 114
O=Cc1cc(S(=O)(=O)n2ccc3ccccc32)ccc1Br | 106 to 108
O=C(O)c1ccc(-n2cc[nH]c2=S)cc1 | 194 to 196
CC(C(=O)O)c1ccc(O)c(N)c1 (stereo not given) | 162
NSc1nc(N)nc2nc[nH]c12 | > 250
COc1ccc(-c2nc(Sc3ccc(F)cc3F)[nH]c2-c2ccc(OC)cc2)cc1 | 174 to 176
c1cc(NCC2CCCO2)c2cc3c(cc2n1)OCO3 (stereo not given) | 276 to 278
Nc1cccnc1CCCCNc1ncc(Cc2cccnc2)c(=O)[nH]1 | 130 to 132
Sc1ccc(-c2nc3cnccc3[nH]2)cc1 | 230
COC(=O)CC(NC(C)=O)c1ccccc1 (stereo not given) | 58 to 67
COC(=O)C=CC=Cc1cc([N+](=O)[O-])ccc1Cl | 132
COc1cc2oc(=O)c(CCO)c(C)c2cc1OC(C)C | 110 to 112
Cc1cc(-c2c(-c3ccc(S(N)(=O)=O)cc3)cnn(-c3cccc(Cl)c3)c2=O)ccc1F | 187 to 188

SMILES | melting point [°C]
CCCCCC12CCC(c3ccc(C#N)c(F)c3)(CC1)CC2 | 63
Cc1cccc2ncc(C(=O)N3CCCC3)c(=O)n12 | 132 to 134
CC1(C)[C@@H](C=C(F)F)[C@@H]1C(=O)OCc1c(F)c(F)c(F)c(-c2ccccc2)c1F (relative stereo) | 69 to 72
O=[N+]([O-])c1ccc(OCCN2CCC(Cc3ccccc3)CC2)cc1O | 136 to 137
CCCN1CCCC(c2ccc(OC)c3c2CC(=O)N3)C1 (stereo not given) | 120
CC(C)COc1ccc(NC(=O)c2cnn(-c3ccc(F)cc3)c2O)cc1C#N | 207 to 208
Nc1ccc(Nc2ccccc2[N+](=O)[O-])cc1 | 110 to 112
O=C(O)C1=Cc2cc(F)c(N3CCC4(C3)OCCCO4)nc2N(c2ccc(F)cc2F)C1 | 145 to 146
Cc1ccc(S(=O)(=O)N(F)CC(C)(C)C)cc1 | 58 to 62.5
NC(=O)c1cc(N)ccc1SSc1ccc(N)cc1C(N)=O | 188 to 190
CO/C=C(/C(=O)OC)c1ccccc1Oc1cc(O)ncn1 | 168 to 170
O=[N+]([O-])c1ccc(NN=C(Cl)c2ccccc2)cc1 | 195 to 196
CCOC(=O)c1cc(OC)ccc1CCc1cc2cc(C#N)ccc2o1 | 92 to 93
COc1cc2c(C=O)c[nH]c2c2c1OCCC2=O | 236
CC(C)c1nc(COCCOC(N)=O)n(Cc2ccccn2)c1Sc1cc(F)cc(F)c1 | 110 to 111
Nc1ccc2[nH]c(C(=O)N3CCC(Cc4ccccc4)CC3)cc2c1 | 175 to 180
CN1CCN(c2cccc(-c3cnn4c(N)c(-c5cccc(Br)c5)cnc34)c2)CC1 | 195 to 197
O=C(O)Cc1cccc2c(-c3ccccc3)nccc12 | 192
CCOc1cc2ncc(C#N)c(C)c2cc1OCC | 140 to 145
Cc1nc(-c2cc(Cc3ccccc3)no2)sc1C(=O)NCc1ccccc1 | 103 to 104
Cc1sc2c(c1C(=O)c1ccc(N(C)C)cc1)CCC2C(=O)O (stereo not given) | 171 to 173
CC(C)COC(=O)N[C@@H](CC(C)C)C(=O)N[C@@H](Cc1ccccc1)C(=O)CSCc1ccco1 | 89 to 90
O=C1CCCN1c1cccc2cccnc12 | 118 to 120
Cc1cccc(N2CC(c3cccc(-c4ccc(S(C)(=O)=O)cc4)c3)=CN2)n1 | 95 to 97
CC(=O)OC1(C(C)CN(C)C)CCCCC1c1ccccc1 (single isomer, unassigned; (-)) | 63 to 66

SMILES | melting point [°C]
CCCC(=O)c1cnc2c(OCCCN(C)C)cccc2c1Nc1ccccc1C | 109 to 110
Cn1nc2cccc(OCCF)c2c1S(N)(=O)=O | 178 to 180
CON=C(C(=O)OC)c1ccccc1Oc1ccccc1 | 109 to 110
FC(F)(F)c1ccc(N2CCNCC2)nc1 | 45 to 47
COc1cc2c(cc1OCc1ccccc1)CCN(Cc1cc(F)cc(F)c1)C2 | 116 to 117
Cc1c(C)c([N+](=O)[O-])c(C)c2c1OC(C)(C)C2c1ccccc1 (stereo not given) | 155 to 156
COC(=O)CCCc1cc2nc(C)ccc2n1S(=O)(=O)c1ccccc1 | 91 to 94
CCOC(=O)NN=Cc1c[nH]c(Cc2ccccc2)n1 | 184 to 185
CN1Cc2c(-c3noc(CN)n3)ncn2-c2sccc2C1=O | 181 to 183
CCC1(CC)CC(c2ccc(OC)c(OC)c2)=NN(C2CCN(C(=O)c3ccccc3)CC2)C1=O | 160 to 161
COC(=O)c1cc2ccncc2c2sc3ccccc3c12 | 174 to 176
O=C(O)CSCC(O)CN1CCCCC1 (stereo not given) | 152
CCCc1c(C(=O)C(C)C)c2ccc(C(=O)OC)cc2n1Cc1ccc(Br)cc1F | 110 to 112
CC(C)(C)OC(=O)NCCNC(=O)c1ncccc1Oc1ccc(Cl)cc1 | 120 to 122
COc1cc(C)c2ccc(N3C(=O)C4=C(SCCS4)C3OC(=O)N3CCN(C)CC3)nc2n1 (stereo not given) | 232 to 234
CC(=O)Nc1cccc2c1Cc1ccccc1C2=O | 266
CCOC(=O)N1CCC23CCCCC12c1ccccc1CC3 (stereo not given) | 67 to 69
Cc1nc2c(OCc3c(Cl)ccc(N(C)C(=O)CNC(N)=O)c3Cl)cccn2c1Br | 147 to 149
CCCc1n[nH]c(=O)n1C | 77
CC(=O)N(CC(=O)N1c2ccccc2N(Cc2ccccc2)C(=O)[C@H]2CCC[C@H]21)C(=O)CCc1ccccc1 (relative stereo) | 138 to 140
CC(C)c1ccc(NC(=O)OC(C)(C)C)c(C(=O)O)c1 | 175
CCOC(=O)C(=O)Cc1cc(Cl)c(Cl)cc1[N+](=O)[O-] | 92 to 94
CCCCCCc1ncc(/C=C(\Cc2cccs2)C(=O)O)n1Cc1ccccc1Cl | 161 to 163
O=C1OC(=O)c2c(Cl)c(Sc3ccccc3)c(Cl)c(Cl)c21 | 162 to 164
O=C1Nc2cccnc2N(C(=O)NCCN2CCC(CNCC3CCCCC3)C2)c2ccccc21 (stereo not given) | 166 to 167
